The experiment addresses T1, FLT3 (Homo sapiens, UniProt P36888).
T1 construct: using full-length kinases in the presence of cellular concentrations of ATP in live, uncompromised cells; assay by Reaction Biology; host or cells: HEK-293 (ATCC), transient transfection
T1 sequence (P36888 27-993): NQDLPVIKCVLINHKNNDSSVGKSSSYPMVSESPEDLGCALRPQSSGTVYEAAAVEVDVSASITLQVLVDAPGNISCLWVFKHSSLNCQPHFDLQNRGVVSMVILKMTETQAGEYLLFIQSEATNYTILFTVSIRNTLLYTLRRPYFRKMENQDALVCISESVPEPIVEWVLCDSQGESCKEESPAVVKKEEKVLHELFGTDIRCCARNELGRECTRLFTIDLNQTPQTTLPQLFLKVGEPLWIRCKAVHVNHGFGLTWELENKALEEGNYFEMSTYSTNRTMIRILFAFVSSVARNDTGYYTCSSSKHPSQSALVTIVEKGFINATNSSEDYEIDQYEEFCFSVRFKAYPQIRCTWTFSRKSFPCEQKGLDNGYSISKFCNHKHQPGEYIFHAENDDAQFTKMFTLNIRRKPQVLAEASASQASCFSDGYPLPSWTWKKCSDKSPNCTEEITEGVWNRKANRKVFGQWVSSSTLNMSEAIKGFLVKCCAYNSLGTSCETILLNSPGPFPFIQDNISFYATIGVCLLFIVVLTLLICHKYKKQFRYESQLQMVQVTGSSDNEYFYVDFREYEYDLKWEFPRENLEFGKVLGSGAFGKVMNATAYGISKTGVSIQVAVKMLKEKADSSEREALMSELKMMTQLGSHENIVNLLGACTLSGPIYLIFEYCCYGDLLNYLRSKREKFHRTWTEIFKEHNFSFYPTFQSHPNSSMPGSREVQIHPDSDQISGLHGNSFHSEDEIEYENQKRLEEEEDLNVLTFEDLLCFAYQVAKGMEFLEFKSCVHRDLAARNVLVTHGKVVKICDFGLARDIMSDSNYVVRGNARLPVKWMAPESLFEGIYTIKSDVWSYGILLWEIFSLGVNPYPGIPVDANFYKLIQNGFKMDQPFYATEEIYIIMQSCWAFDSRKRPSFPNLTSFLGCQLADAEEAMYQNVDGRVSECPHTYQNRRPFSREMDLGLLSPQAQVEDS
As to the kind of experiment: Reaction Biology NanoBRET target engagement assay, FLT3. Format: cell-based. As to conditions: transfected HEK-293 cells. From the text:
The NanoBRET assay measures kinase engagement in real time in the context of the intact cell. Unlike the previously described biochemical kinase assay methodologies in Examples 26-27, the NanoBRET assay measures the binding and activity characteristics under equilibrium conditions using full-length kinases in the presence of cellular concentrations of ATP in live, uncompromised cells. As such, the assay provides a more relevant assessment of kinase potency and selectivity that would be expected to be observed in the native cellular environment, where potency is often considerably lower than that observed in the isolated biochemical assays (Vasta, J. D. et al., (2018) Cell Chem. Biol. 25, 206-214). The assay uses a Kinase-NanoLuc® fusion vector expressing a kinase protein to which a luciferase tag has been added, a cell-permeant fluorescent NanoBRET™ tracer, a NanoLuc® substrate, and an extracellular NanoLuc® inhibitor. Upon expression of the luciferase-tagged kinase, cells will produce a strong BRET signal only in the presence of the NanoBRET™ tracer. The extracellular NanoLuc® inhibitor ensures that the BRET signal observed emanates only from live cells. Because the BRET signal has tight distance constraints, addition of the test compound will decrease the BRET signal if the compound competes with the NanoBRET™ tracer for binding to the kinase domain. Under the appropriate tracer conditions established by the manufacturer, quantitative intracellular affinity and relative potency can then be determined using Mass Action model equations.
HEK-293 cells were purchased from ATCC. FuGENEHD Transfection Reagent, Kinase-NanoLucfusion plasmids, Transfection Carrier DNA, NanoBRETTracers and dilution buffer, NanoBRETNano-Glo Substrate, Extracellular NanoLucInhibitor were obtained from Promega.
Assays were conducted following Promega assay protocol with some modifications. HEK-293 Cells were transiently transfected with Kinase-NanoLucFusion Vector DNA by FuGENEHD Transfection Reagent. Testing compounds were delivered into 384 well assay plate by Echo 550 (LabcyteInc, Sunnyvale, CA). Transfected cells were harvested and mixed with NanoBRETTracer Reagent and dispensed into 384 well plates and incubated at 37° C. in 5% CO2 cell culture incubator for 1 hour. The NanoBRETNano-Glo Substrate plus Extracellular NanoLucInhibitor Solution were added into the wells of the assay plate and incubated for 2-3 minutes at room temperature. The donor emission wavelength (460 nm) and acceptor emission wavelength (600 nm) were measured in the EnVisionplate reader. The BRET Ratios were calculated. BRET Ratio=[(Acceptor sample÷Donor sample)−(Acceptor no-tracer control÷Donor no-tracer control)]. The IC50 values of compounds were calculated with Prism GraphPad program.
• 1). Cultivate HEK-293 cells (70-80% confluence) appropriately prior to assay. Trypsinize and collect HEK-293 cells. • 2). Prepare lipid: DNA complexes as follows: • a. Prepare a 10 μg/ml solution of DNA in Opti-MEM without serum that consists of the following ratios of carrier DNA and DNA encoding NanoLuc® fusion. 9.0 μg/mL of Transfection Carrier DNA, 1.0 μg/mL of NanoLuc fusion vector DNA and 1 mL of Opti-MEM without phenol red. Mix thoroughly. • b. Add 30 μl of FuGENE HD Transfection Reagent into each milliliter of DNA mixture to form lipid:DNA complex. • c. Mix by inversion 10 times. • d. Incubate at ambient temperature for 20 minutes to allow complexes to form. • 3). In a sterile, conical tube, mix 1 part of lipid:DNA complex with 20 parts of HEK-293 cells in suspension. Mix gently by inversion 5 times. • 4). Dispense cells+lipid:DNA complex into a sterile tissue culture dish and incubate for 22-24 hours. 2. Addition of Test Compounds (Dry Plate Shooting)
Each test compound is delivered from the compound source plate to the wells of 384-well white NBS plate by Echo 550.
• 1). […]
(In general: BRET reads energy transfer from a luciferase to a nearby fluorophore.)

One may read the IC50 as the concentration that gives 50% inhibition. Higher therefore signals a need for much substance.

The structures appear in SMILES notation.

Compound `COc1cc2ncc(-c3cccc(N[C@H]4CNC[C@@H]4F)n3)n2nc1C(C)(O)C(F)(F)F` (single isomer, unassigned; fast-eluting) [Compound 133] registered an IC50 of 226 nM. `F[C@H]1CNC[C@@H]1Nc1cccc(-c2cnc3ccc(-c4cnn5ccccc45)nn23)n1` [Compound 9, N-((3S,4S)-4-fluoropyrrolidin-3-yl)-6-(6-(pyrazolo[1,5-a]pyridin-3-yl)imidazo[1,2-b]pyridazin-3-yl)pyridin-2-amine] gave an IC50 of 367 nM. This IC50 lies about 1.6-fold higher than the previous one. `c1cc(N[C@@H]2CCCNC2)nc(-c2cnc3ccc(-c4cnn5ccccc45)nn23)c1` [Compound 19, (R)-N-(piperidin-3-yl)-6-(6-(pyrazolo[1,5-a]pyridin-3-yl)imidazo[1,2-b]pyridazin-3-yl)pyridin-2-amine] came in with an IC50 of 142 nM. For the compound `COc1cc2ncc(-c3cccc(N[C@H]4CNC[C@@H]4F)n3)n2nc1C1CC1` [Compound 96, 6-(6-cyclopropyl-7-methoxyimidazo[1,2-b]pyridazin-3-yl)-N-((3S,4S)-4-fluoropyrrolidin-3-yl)pyridin-2-amine], the 50% inhibitory concentration (IC50) amounted to 18 nM.

Compound `COc1cc2ncc(-c3cccc(N[C@H]4CNC[C@@H]4C(F)(F)F)n3)n2nc1C1CC1` [Compound 99, 6-(6-cyclopropyl-7-methoxyimidazo[1,2-b]pyridazin-3-yl)-N-((3R,4S)-4-(trifluoromethyl)pyrrolidin-3-yl)pyridin-2-amine] came in with an IC50 of 3 nM. In turn, `COc1cc2ncc(-c3cccc(N[C@H]4CNCC[C@@H]4F)n3)n2nc1C1CC1` [Compound 102, 6-(6-cyclopropyl-7-methoxyimidazo[1,2-b]pyridazin-3-yl)-N-((3S,4S)-4-fluoropiperidin-3-yl)pyridin-2-amine] gave an IC50 of 4 nM. As for `COc1cc2ncc(-c3nc(N[C@@H]4CCCNC4)c(F)cc3F)n2nc1C1CC1` [Compound 106, (R)-6-(6-cyclopropyl-7-methoxyimidazo[1,2-b]pyridazin-3-yl)-3,5-difluoro-N-(piperidin-3-yl)pyridin-2-amine], the IC50 was less than 0.5 nM.

Take `COc1cc2ncc(-c3nc(N[C@H]4CNC[C@@H]4F)c(F)cc3F)n2nc1C1CC1` [Compound 107, 6-(6-cyclopropyl-7-methoxyimidazo[1,2-b]pyridazin-3-yl)-3,5-difluoro-N-((3S,4S)-4-fluoropyrrolidin-3-yl)pyridin-2-amine]: the half-inhibitory concentration (IC50) is 4890 nM. This lies in the single-digit micromolar range. The same measure for `COc1cc2ncc(-c3nc(N[C@H]4CNCC[C@@H]4F)c(F)cc3F)n2nc1C1CC1` [Compound 108, 6-(6-cyclopropyl-7-methoxyimidazo[1,2-b]pyridazin-3-yl)-3,5-difluoro-N-((3S,4S)-4-fluoropiperidin-3-yl)pyridin-2-amine]: less than 0.5 nM; for `COc1cc2ncc(-c3nc(N[C@H]4CNC[C@@H]4F)c(F)cc3F)n2nc1C(C)(C)O` [Compound 126, 2-(3-(3,5-difluoro-6-(((3S,4S)-4-fluoropyrrolidin-3-yl)amino)pyridin-2-yl)-7-methoxyimidazo[1,2-b]pyridazin-6-yl)propan-2-ol]: 1160 nM.

On to `COc1cc2ncc(-c3nc(N[C@@H]4CCCNC4)c(F)cc3F)n2nc1C(C)(C)O` [Compound 127, (R)-2-(3-(3,5-difluoro-6-(piperidin-3-ylamino)pyridin-2-yl)-7-methoxyimidazo[1,2-b]pyridazin-6-yl)propan-2-ol], for which inhibition was half-maximal at 196 nM (IC50). `COc1cc2ncc(-c3nc(N[C@H]4CNCC[C@@H]4F)c(F)cc3F)n2nc1C(C)(C)O` [Compound 128, 2-(3-(3,5-difluoro-6-(((3S,4S)-4-fluoropiperidin-3-yl)amino)pyridin-2-yl)-7-methoxyimidazo[1,2-b]pyridazin-6-yl)propan-2-ol] came in with a 50% inhibitory concentration (IC50) of 102 nM.

The record behind these values is patent US12534469B2 (CHILDREN'S HOSPITAL MEDICAL CENTER, priority 2020, dated 2026).
